Source: publication PMC10762078, “Role of UPF1-LIN28A interaction during early differentiation of pluripotent stem cells” (Nature Communications, 2024)
Ends that are not written are not given here.

How the values were obtained:
CHA15 cells = test: Flow cytometry (FACS) of OCT4- and NANOG-positive cells (Fig. 6c, Supplementary Fig. 6b); type: cell-based, human
Protocol: (§1) For CPP-conjugated peptide delivery, HeLa, 293T, and PA-1 cells were incubated with CPP-conjugated peptides or CPP-FITC at 2 μM in DMEM with 10% FBS for 12 h a day before cell harvest. hPSCs were treated with CPP-conjugated peptides at 10 μM in mTeSR Plus Medium, and the peptide-containing medium was changed every day over 10 days. The ROCK inhibitor (Tocris Bioscience, Y-27632) treated-hPSCs were dissociated into single cells using Accutase (Merck, SCR005) and differentiated into ectoderm, mesoderm, and endoderm using the STEMdiff Trilineage Differentiation Kit ([…] Technologies, 05230) following the manufacturer’s protocol. Differentiated cells treated with CPP-conjugated peptides were analysed at 0, 3, and 5 days for ectoderm and endoderm, and at 0, 3, and 4 days for mesoderm.
To evaluate the relative cell number expressing the indicated proteins, CHA15 cells with the indicated CPP-conjugated peptide were fixed with BD Cytofix Fixation Buffer (BD Biosciences Pharmingen, 554655) followed by permeabilization with 0.1% BSA/PBS solution supplemented with 10% NGS and 0.3% Triton X-100 for 1 h at 4 °C. After washing, cells were incubated with the primary antibodies (OCT4 1:1000, NANOG 1:1000, DLK1 1:1000, SOX2 1:1000, LHX2 1:1000) and then, secondary antibody, Alexa Fluor 488 (1:1000), was applied. The positive cells were determined using flow cytometry (FACSCanto, BD Pharmingen), and data was analysed using the Flow Jo-v10 software program.

hPSCs = test: RT-qPCR of pluripotency and germ-layer markers during differentiation with CPP-peptides (Supplementary Fig. 7b-e); type: cell-based, human; conditions: for Difference between means (B - A) ± SEM: P8 - P1
Protocol: as §1, with “mesoderm. […]” for “mesoderm.”
cDNA was synthesised using RevertAid Reverse Transcriptase (Thermo Fisher Scientific, EP0441) with synthesised random hexamer (Macrogen) for total RNA or stem-loop primers for miRNA. For RT-qPCR reactions, the SensiFAST SYBR No-ROX kit (Meridian Bioscience) was used according to the manufacturer’s protocol. All data analysis and visualisation were conducted using R 3.6.1 [www.r-project.org] or GraphPad Prism 10. RT primers for miRNA and RT-qPCR primer sequences are provided in Supplementary Data 6. […]
FPKM of each gene was presented f r om RNA-seq analysis. b–e hPSCs wer e treated with the indicated peptide during each germ la ye r differentiation. […]
An unpaired Student’s t-test was used for a–e. Data are presented as mean values ± SEM. All statistical test us ed wer e two-s ided. T he m inim um number of independent biological replicate experim ents was a–f n = 3. T he experiments wer e conducted three tim es, each iteration producing consistent results.

[1] = CHA15, CPP-peptide 10 μM, mean of 3 sets
[2] = Fig. s7d, day 3, mean of 3 replicates
[3] = Fig. s7d, day 4, mean of 3 replicates

## KKKWCRKKKSSADEKRYRALKRTAERELLMNA [P8]
CHA15 cells; [1]
  NANOG-positive cells, FACS (relative), mean: 0.7195
  OCT4-positive cells, FACS (relative), mean: 0.7944
CHA15 cells; CHA15, vs CPP-P1
  NANOG FACS, difference between means vs P1 ± SEM: -0.2805 ± 0.006838
  OCT4 FACS, difference between means vs P1 ± SEM: -0.2056 ± 0.01612
hPSCs; Day 0, replicate 1, Fig. s7e
  CXCR4 (RT-qPCR): 1.088
  FOXA1 (RT-qPCR): 1.247
  GATA4 (RT-qPCR): 0.7242
  SOX17 (RT-qPCR): 1.264
hPSCs; Day 0, replicate 2, Fig. s7e
  CXCR4 (RT-qPCR): 0.7848
  FOXA1 (RT-qPCR): 1.413
  GATA4 (RT-qPCR): 1.3517
  SOX17 (RT-qPCR): 0.8709
hPSCs; Day 0, replicate 3, Fig. s7e
  CXCR4 (RT-qPCR): 1.127
  FOXA1 (RT-qPCR): 0.3396
  GATA4 (RT-qPCR): 0.9241
  SOX17 (RT-qPCR): 0.8647
hPSCs; Day 3, replicate 1, Fig. s7e
  CXCR4 (RT-qPCR): 70.9428
  FOXA1 (RT-qPCR): 74.3757
  GATA4 (RT-qPCR): 32.2
  SOX17 (RT-qPCR): 2247.1
hPSCs; Day 3, replicate 2, Fig. s7e
  CXCR4 (RT-qPCR): 396.929
  FOXA1 (RT-qPCR): 54.052
  GATA4 (RT-qPCR): 35.8526
  SOX17 (RT-qPCR): 1796.71
hPSCs; Day 3, replicate 3, Fig. s7e
  CXCR4 (RT-qPCR): 186.896
  FOXA1 (RT-qPCR): 82.1532
  GATA4 (RT-qPCR): 22.1669
  SOX17 (RT-qPCR): 1610.91
hPSCs; Day 5, replicate 1, Fig. s7e
  CXCR4 (RT-qPCR): 166.399
  FOXA1 (RT-qPCR): 512.006
  GATA4 (RT-qPCR): 75.9376
  SOX17 (RT-qPCR): 1021.85
hPSCs; Day 5, replicate 2, Fig. s7e
  CXCR4 (RT-qPCR): 221.471
  FOXA1 (RT-qPCR): 494.768
  GATA4 (RT-qPCR): 69.9276
  SOX17 (RT-qPCR): 1109.15
hPSCs; Day 5, replicate 3, Fig. s7e
  CXCR4 (RT-qPCR): 55.5295
  FOXA1 (RT-qPCR): 555.597
  GATA4 (RT-qPCR): 152.842
  SOX17 (RT-qPCR): 1096.19
hPSCs; CXCR4 day 3
  Difference between means (B - A) ± SEM: -395.9 ± 135.2
hPSCs; CXCR4 day 3, mean of n = 3, Fig. s7e
  Mean CXCR4 (RT-qPCR): 218.3
hPSCs; CXCR4 day 5
  Difference between means (B - A) ± SEM: -733.3 ± 94.11
hPSCs; CXCR4 day 5, mean of n = 3, Fig. s7e
  Mean CXCR4 (RT-qPCR): 147.8
hPSCs; FOXA1 day 5
  Difference between means (B - A) ± SEM: 207.3 ± 47.14
hPSCs; FOXA1 day 5, mean of n = 3, Fig. s7e
  Mean FOXA1 (RT-qPCR): 520.8
hPSCs; Fig. s7b, mesoderm, day 4, P8 vs. P1
  SOX2 difference between means (P8 - P1) ± SEM: 0.07995 ± 0.0229
hPSCs; Fig. s7b, mesoderm, day 4, mean of 3 replicates
  SOX2 mRNA level (RT-qPCR), mean: 0.08192
hPSCs; Fig. s7d, Day 0, replicate 1
  BMP2 mRNA level (RT-qPCR): 0.8054
  BMP4 mRNA level (RT-qPCR): 1.545
  CDH2 mRNA level (RT-qPCR): 1.016
  CXCR4 mRNA level (RT-qPCR): 0.9995
  SNAI1 mRNA level (RT-qPCR): 1.4406
  TBXT mRNA level (RT-qPCR): 1.3
hPSCs; Fig. s7d, Day 0, replicate 2
  BMP2 mRNA level (RT-qPCR): 1.199
  BMP4 mRNA level (RT-qPCR): 0.6508
  CDH2 mRNA level (RT-qPCR): 0.7569
  CXCR4 mRNA level (RT-qPCR): 1.121
  SNAI1 mRNA level (RT-qPCR): 0.9418
  TBXT mRNA level (RT-qPCR): 0.8652
hPSCs; Fig. s7d, Day 0, replicate 3
  BMP2 mRNA level (RT-qPCR): 0.9954
  BMP4 mRNA level (RT-qPCR): 0.8046
  CDH2 mRNA level (RT-qPCR): 1.227
  CXCR4 mRNA level (RT-qPCR): 0.8798
  SNAI1 mRNA level (RT-qPCR): 0.6176
  TBXT mRNA level (RT-qPCR): 0.8351
hPSCs; Fig. s7d, Day 3, replicate 1
  BMP2 mRNA level (RT-qPCR): 1.1089
  BMP4 mRNA level (RT-qPCR): 41.4056
  CDH2 mRNA level (RT-qPCR): 19.486
  CXCR4 mRNA level (RT-qPCR): 784.151
  SNAI1 mRNA level (RT-qPCR): 12.8862
  TBXT mRNA level (RT-qPCR): 3854.3
hPSCs; Fig. s7d, Day 3, replicate 2
  BMP2 mRNA level (RT-qPCR): 1.096
  BMP4 mRNA level (RT-qPCR): 50.4784
  CDH2 mRNA level (RT-qPCR): 21.455
  CXCR4 mRNA level (RT-qPCR): 774.595
  SNAI1 mRNA level (RT-qPCR): 13.1184
  TBXT mRNA level (RT-qPCR): 4302.87
hPSCs; Fig. s7d, Day 3, replicate 3
  BMP2 mRNA level (RT-qPCR): 1.333
  BMP4 mRNA level (RT-qPCR): 53.6277
  CDH2 mRNA level (RT-qPCR): 17.5345
  CXCR4 mRNA level (RT-qPCR): 641.469
  SNAI1 mRNA level (RT-qPCR): 12.7742
  TBXT mRNA level (RT-qPCR): 4804.52
hPSCs; Fig. s7d, Day 4, replicate 1
  BMP2 mRNA level (RT-qPCR): 0.2478
  BMP4 mRNA level (RT-qPCR): 31.2396
  CDH2 mRNA level (RT-qPCR): 14.5509
  CXCR4 mRNA level (RT-qPCR): 668.803
  SNAI1 mRNA level (RT-qPCR): 16.3401
  TBXT mRNA level (RT-qPCR): 2083
hPSCs; Fig. s7d, Day 4, replicate 2
  BMP2 mRNA level (RT-qPCR): 0.261
  BMP4 mRNA level (RT-qPCR): 27.7899
  CDH2 mRNA level (RT-qPCR): 13.2223
  CXCR4 mRNA level (RT-qPCR): 587.806
  SNAI1 mRNA level (RT-qPCR): 17.9864
  TBXT mRNA level (RT-qPCR): 2236.13
hPSCs; Fig. s7d, Day 4, replicate 3
  BMP2 mRNA level (RT-qPCR): 0.2852
  BMP4 mRNA level (RT-qPCR): 35.8542
  CDH2 mRNA level (RT-qPCR): 15.5934
  CXCR4 mRNA level (RT-qPCR): 589.372
  SNAI1 mRNA level (RT-qPCR): 18.1009
  TBXT mRNA level (RT-qPCR): 2648.18
hPSCs; Fig. s7d, day 3, P8 vs. P1
  SNAI1 difference between means (P8 - P1) ± SEM: -10.01 ± 2.987
  SNAI1 difference between means, 95% confidence interval: -18.30 to -1.717
  TBXT difference between means (P8 - P1) ± SEM: -3827 ± 1244
  TBXT difference between means, 95% confidence interval: -7280 to -372.8
hPSCs; [2]
  SNAI1 mRNA level (RT-qPCR), mean: 12.93
  TBXT mRNA level (RT-qPCR), mean: 4321
hPSCs; Fig. s7d, day 4, P8 vs. P1
  BMP4 difference between means (P8 - P1) ± SEM: 18.59 ± 2.500
  BMP4 difference between means, 95% confidence interval: 11.65 to 25.53
  CDH2 difference between means (P8 - P1) ± SEM: -2.944 ± 0.7977
  CDH2 difference between means, 95% confidence interval: -5.158 to -0.7287
  TBXT difference between means (P8 - P1) ± SEM: -1631 ± 305.2
  TBXT difference between means, 95% confidence interval: -2478 to -783.3
hPSCs; [3]
  BMP4 mRNA level (RT-qPCR), mean: 31.63
  CDH2 mRNA level (RT-qPCR), mean: 14.46
  TBXT mRNA level (RT-qPCR), mean: 2322
